This is an account of results in patent US20250195661A1, “NIR-responsive stem cell-derived inflammation attenuating complex and use thereof” (priority 2023, published 2025).

The nature of the series: Hydrodynamic size and potential analysis. Type of series: physicochemical. Here is the method: The hydrodynamic size distribution and electrical potential of nanomedicines including AuS-TA were evaluated using a Litesizer 500 (Anton Paar) according to the manufacturer's instructions. AuS and TA non-covalently attached to AuS were quantified by determining absorbance using UV-vis spectrophotometry (Biochrom). […] Therefore, the TA amount of Edu-MSCs-AuS-TA was measured based on the AuS-TA ratio of AuS and TA. The concentration of each solution was extrapolated using the linear standard curve for AuS and TA. The morphology, crystallinity, and EDS mapping of AuS-PEG and AuS-TA complexes were analyzed using TEM (F30, Tecnai, USA) and STEM (JEM-ARM200F, JEOL, Japan).

For the compound `C[C@]12C=CC(=O)C=C1CC[C@H]1[C@@H]3C[C@@H](O)[C@](O)(C(=O)CO)[C@@]3(C)C[C@H](O)[C@@]12F` [TA, triamcinolone], the hydrodynamic size worked out at 77 nm and the surface charge result is “close to neutral”.
